From the supplement of paper PMC10307832

What was measured:
Test in all cases: relative viability (nuclei count vs DMSO), 5 days (fraction); higher = more cells survive
XMD14-99 + Luminespib = compound: CN1CCN(CC1)C2=CC(=C(C=C2)NC3=NC(=C(S3)C(=O)C4=C(C=CC=C4Cl)Cl)N)OC [XMD14-99] + CCNC(=O)c1noc(-c2cc(C(C)C)c(O)cc2O)c1-c1ccc(CN2CCOCC2)cc1 [Luminespib] (partner 0.01 µM)
Outline: (§1)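 Nuclei were stained with Hoechst during a one-step fixation (final 0.05% Triton X-100, 1% formaldehyde, 1 ug/ml Hoechst) carried out 5 days after dosing, then counted on 4× images. The cells, lung cancer lines in 1536-well plates, had been dosed by pin tool the day after seeding with one drug alone or a fixed anchor-drug dose plus five library-drug doses (not always all listed) in √10 steps. Relative viability is the nuclei count in treated wells divided by that in vehicle wells, and each value is the median of duplicate plates.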

XMD14-99 + Pictilisib = compound: CN1CCN(CC1)C2=CC(=C(C=C2)NC3=NC(=C(S3)C(=O)C4=C(C=CC=C4Cl)Cl)N)OC [XMD14-99] + CS(=O)(=O)N1CCN(Cc2cc3nc(-c4cccc5[nH]ncc45)nc(N4CCOCC4)c3s2)CC1 [Pictilisib] (partner 1 µM)
Outline: as §1

AZD1208 + OSI-027 = compound: N[C@@H]1CCCN(c2c(/C=C3\SC(=O)NC3=O)cccc2-c2ccccc2)C1 [AZD1208] + COc1cccc2cc(-c3nc([C@H]4CC[C@H](C(=O)O)CC4)n4ncnc(N)c34)[nH]c12 [OSI-027] (partner 0.5 µM)
Outline: as §1

AZD1208 + AZD7762 = compound: N[C@@H]1CCCN(c2c(/C=C3\SC(=O)NC3=O)cccc2-c2ccccc2)C1 [AZD1208] + NC(=O)Nc1cc(-c2cccc(F)c2)sc1C(=O)N[C@H]1CCCNC1 [AZD7762] (partner 0.2 µM)
Outline: as §1

Cell Line	relative viability (XMD14-99 + Luminespib; first compound 0.08 µM)	relative viability (XMD14-99 + Luminespib; first compound 0.8 µM)	relative viability (XMD14-99 + Luminespib; first compound 2.53 µM)	relative viability (XMD14-99 + Luminespib; first compound 8 µM)	relative viability (XMD14-99 + Pictilisib; first compound 0.08 µM)	relative viability (XMD14-99 + Pictilisib; first compound 0.8 µM)	relative viability (XMD14-99 + Pictilisib; first compound 2.53 µM)	relative viability (XMD14-99 + Pictilisib; first compound 8 µM)	relative viability (AZD1208 + OSI-027; first compound 0.08 µM)	relative viability (AZD1208 + OSI-027; first compound 0.253 µM)	relative viability (AZD1208 + OSI-027; first compound 0.8 µM)	relative viability (AZD1208 + OSI-027; first compound 2.53 µM)	relative viability (AZD1208 + OSI-027; first compound 8 µM)	relative viability (AZD1208 + AZD7762; first compound 0.08 µM)	relative viability (AZD1208 + AZD7762; first compound 0.253 µM)	relative viability (AZD1208 + AZD7762; first compound 0.8 µM)	relative viability (AZD1208 + AZD7762; first compound 2.53 µM)	relative viability (AZD1208 + AZD7762; first compound 8 µM)
201T	1	1.01	0.993	0.829	0.7	0.666	0.658	0.619	0.81	0.78	0.512	0.53	0.477	0.669	0.654	0.565	0.693	0.511
A549	–	–	–	–	0.397	0.545	0.505	0.348	–	–	–	–	–	–	–	–	–	–
A-427	1.02	1.07	0.875	0.617	0.694	0.784	0.607	0.448	0.453	0.543	0.469	0.41	0.378	0.7	0.789	0.665	0.653	0.689
ABC-1	0.511	0.7	0.806	0.382	0.754	0.667	0.588	0.47	0.417	0.444	0.487	0.377	0.436	0.905	0.728	0.785	0.884	1.35
BEN	0.377	0.419	0.271	0.285	0.554	0.523	0.641	0.442	0.301	0.254	0.278	0.294	0.238	0.749	0.578	0.562	0.503	0.478
CAL-12T	0.387	0.524	0.358	0.346	0.397	0.453	0.334	0.287	0.61	0.668	0.583	0.506	0.436	0.621	0.624	0.621	0.596	0.905
COR-L23	0.578	0.613	0.515	0.419	0.676	0.748	0.68	0.414	0.762	0.779	0.642	0.728	0.452	–	–	–	–	–
COR-L 105	0.693	0.845	0.778	0.466	0.363	0.374	0.34	0.357	0.613	0.745	0.542	–	0.736	–	–	–	–	–
Calu-6	–	–	–	–	0.881	0.824	0.785	0.57	–	–	–	–	–	–	–	–	–	–
ChaGo-K-1	0.565	0.599	0.609	0.513	0.811	0.703	0.67	0.509	0.579	0.546	0.49	0.421	0.402	0.849	0.931	0.813	0.952	0.776
EBC-1	–	–	–	–	0.481	0.391	0.318	0.26	–	–	–	–	–	–	–	–	–	–
EKVX	0.905	0.814	0.768	0.802	0.422	0.488	0.487	0.35	0.674	0.651	0.634	0.673	0.648	0.76	0.801	0.674	0.719	0.606
EMC-BAC-2	1.19	1.13	0.99	1.01	0.573	0.519	0.519	0.413	0.364	0.37	0.346	0.296	0.315	1.21	1.13	0.866	1.03	0.875
EPLC-272H	0.658	0.512	0.417	0.195	0.338	0.338	0.284	0.247	0.255	0.289	0.276	0.247	0.281	0.276	0.339	0.205	0.189	0.271
H3255	0.958	0.934	0.781	0.614	0.451	0.39	0.403	0.302	0.506	0.54	0.429	0.491	0.543	1.01	0.992	0.898	0.912	0.845
HARA	0.311	0.685	0.581	0.207	0.35	0.382	0.222	0.298	0.467	0.497	0.468	0.433	0.277	0.36	0.468	0.373	0.557	0.44
HCC-15	0.412	0.258	0.214	0.256	0.727	0.778	0.703	0.495	0.63	0.673	0.491	0.467	0.437	1.19	1.26	1.03	1.43	1.19
HCC-44	1.01	0.968	1.07	0.753	0.6	0.655	0.568	0.626	0.504	0.496	0.512	0.331	0.485	1.01	1.05	1.03	1.07	1.08
HCC-78	–	–	–	–	0.221	0.224	0.2	0.191	0.41	0.395	0.375	0.374	0.332	0.737	0.758	0.643	0.739	0.793
HCC-366	–	–	–	–	0.137	0.143	0.156	0.149	0.963	0.96	0.837	0.819	0.672	0.368	0.362	0.371	0.41	0.387
HCC-827	0.492	0.669	0.595	0.617	1.1	0.895	0.917	0.998	0.688	0.751	0.707	0.617	0.667	0.205	0.259	0.237	0.239	0.197
